Values quoted from earlier work in patent US20060046268A1, “Diagnosis of anemia and optimizing treatment for heart repair” (Australian Stem Cell Centre Ltd., priority 2004, published 2006).

Test system: renal transplant patients
Conditions: reversed upon ceasing administration of the drug, Vlahakos et al., Am J Kidney Dis 17:199-205

In the case of `CCOC(=O)[C@H](CCc1ccccc1)N[C@@H](C)C(=O)N1CCC[C@H]1C(=O)O` [Enalapril], the “anemia (impact on function of the hematopoietic system)” value is listed as “reversible anemia”.
